Measurements from patent US7179632B2, “Process for the production of allicin” (Neem Biotech Ltd., priority 2001, dated 2007).

Test: Storage stability of allicin in aqueous solution
Assay type: physicochemical

- stability in solution (0.5% solution at −40° C., filtered to remove impurities): reasonably stable
- stability in solution (concentrations above 0.5% solution in water): extremely unstable
- effect of pH on stability (diluted solution, pH controlled to approximately pH 4.5): increases the stability
- stability on storage (non-extracted solution diluted to approximately 'it' allicin, stored below −20° C.): stable for several months
- stability in solution (solution of up to 1.0% v/v allicin): unstable
SMILES: C=CCS[S+]([O-])CC=C (centres unmarked) [allicin, thio-2-propene-1-sulfinic acid S-allyl ester]
